pIC50: −log10 of the molar value.

Data set [1] concerns the target T1, Cytochrome P450 11B1, mitochondrial (Homo sapiens, UniProt P15538).
T1 sequence (P15538 whole entry): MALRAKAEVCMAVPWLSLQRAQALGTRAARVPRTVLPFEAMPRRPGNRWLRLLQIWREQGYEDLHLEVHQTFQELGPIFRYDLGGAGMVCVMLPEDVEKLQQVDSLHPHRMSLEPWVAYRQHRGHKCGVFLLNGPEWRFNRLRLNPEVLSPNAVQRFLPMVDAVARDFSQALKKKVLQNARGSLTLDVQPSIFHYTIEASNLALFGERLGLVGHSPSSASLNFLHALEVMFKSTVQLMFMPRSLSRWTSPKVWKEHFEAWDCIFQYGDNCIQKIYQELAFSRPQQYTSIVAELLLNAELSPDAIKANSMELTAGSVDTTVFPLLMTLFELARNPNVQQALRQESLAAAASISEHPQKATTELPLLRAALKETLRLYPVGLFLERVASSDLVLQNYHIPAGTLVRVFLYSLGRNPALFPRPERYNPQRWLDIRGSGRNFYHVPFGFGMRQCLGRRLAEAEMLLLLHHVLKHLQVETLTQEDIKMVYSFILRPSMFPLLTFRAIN
As to the kind of experiment: Inhibition of human CYP11B1 expressed in hamster V79MZ cells using 11-deoxycorticosterone substrate. In kind it is cell-based.

In data set [2] the target is T2, Cytochrome P450 11B2, mitochondrial (Homo sapiens, UniProt P19099).
T2 sequence (P19099 whole entry): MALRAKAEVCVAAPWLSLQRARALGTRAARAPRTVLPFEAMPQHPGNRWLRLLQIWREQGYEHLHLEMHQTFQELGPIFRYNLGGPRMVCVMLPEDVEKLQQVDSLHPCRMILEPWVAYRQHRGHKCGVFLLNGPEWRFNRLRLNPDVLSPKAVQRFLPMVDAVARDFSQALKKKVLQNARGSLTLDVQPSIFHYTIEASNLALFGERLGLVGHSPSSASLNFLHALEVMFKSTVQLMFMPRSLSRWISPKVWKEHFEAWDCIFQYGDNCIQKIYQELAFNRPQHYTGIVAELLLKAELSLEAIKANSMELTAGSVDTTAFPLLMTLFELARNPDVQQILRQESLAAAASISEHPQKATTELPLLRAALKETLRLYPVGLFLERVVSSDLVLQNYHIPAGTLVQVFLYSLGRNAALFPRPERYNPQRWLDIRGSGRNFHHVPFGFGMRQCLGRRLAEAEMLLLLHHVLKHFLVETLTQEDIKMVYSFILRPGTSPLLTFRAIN
Nature of the data set: Inhibition of human CYP11B2 expressed in hamster V79MZ cells using 11-deoxycorticosterone substrate. In kind it is cell-based.

In data set [3] the target is T3, Steroid 17-alpha-hydroxylase/17,20 lyase (Homo sapiens, UniProt P05093).
T3 sequence (P05093 whole entry): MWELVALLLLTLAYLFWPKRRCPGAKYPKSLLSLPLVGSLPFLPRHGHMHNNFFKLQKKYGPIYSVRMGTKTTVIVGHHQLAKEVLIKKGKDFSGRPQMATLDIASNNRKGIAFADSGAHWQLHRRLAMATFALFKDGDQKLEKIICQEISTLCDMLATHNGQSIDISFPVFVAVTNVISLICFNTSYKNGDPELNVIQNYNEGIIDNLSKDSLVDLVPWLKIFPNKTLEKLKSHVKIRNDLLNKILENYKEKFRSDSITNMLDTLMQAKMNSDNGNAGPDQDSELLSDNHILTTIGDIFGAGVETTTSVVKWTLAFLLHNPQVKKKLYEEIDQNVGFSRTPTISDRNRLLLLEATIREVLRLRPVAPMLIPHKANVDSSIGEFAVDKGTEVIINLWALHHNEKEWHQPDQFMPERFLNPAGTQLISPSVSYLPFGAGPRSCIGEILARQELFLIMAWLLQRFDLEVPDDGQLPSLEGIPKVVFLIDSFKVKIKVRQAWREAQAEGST
As to the kind of experiment: Inhibition of human recombinant CYP17 expressed in Escherichia coli at 2 uM using progesterone substrate. Conditions: 2 µM; call rule not given here.

For a further data set, the target named is T4, Aromatase (Homo sapiens, UniProt P11511).
T4 sequence (P11511 whole entry): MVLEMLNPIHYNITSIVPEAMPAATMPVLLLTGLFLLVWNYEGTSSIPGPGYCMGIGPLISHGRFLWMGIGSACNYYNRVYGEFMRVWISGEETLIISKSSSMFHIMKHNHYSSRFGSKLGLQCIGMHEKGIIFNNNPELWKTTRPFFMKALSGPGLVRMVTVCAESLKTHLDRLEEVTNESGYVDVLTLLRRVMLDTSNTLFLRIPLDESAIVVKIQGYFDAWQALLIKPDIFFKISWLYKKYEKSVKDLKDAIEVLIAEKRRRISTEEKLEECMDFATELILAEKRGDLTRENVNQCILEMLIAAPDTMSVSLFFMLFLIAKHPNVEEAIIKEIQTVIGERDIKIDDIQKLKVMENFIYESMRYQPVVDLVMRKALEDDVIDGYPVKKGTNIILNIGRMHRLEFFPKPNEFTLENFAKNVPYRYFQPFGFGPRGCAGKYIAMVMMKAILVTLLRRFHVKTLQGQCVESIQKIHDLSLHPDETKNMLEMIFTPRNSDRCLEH
Nature of the data set: (§1) Inhibition of human placental microsomes CYP19 at 500 nM using androstenedione substrate. Conditions: 0.5 µM.

The species named for another data set is Homo sapiens. Nature of the data set: Selectivity index, ratio of IC50 for human CYP11B2 to IC50 for human CYP11B1.
Another data set addresses T5, CYP19 (aromatase) (Homo sapiens, UniProt P11511).
T5 sequence (P11511 whole entry): T4 sequence (P11511 whole entry)
The data set is described as §1. The following applies: human placental microsomes, probe androstenedione.

The pIC50 is −log10 of the IC50, conventionally taken in molar units. Lower therefore signals a high IC50. For `c1ccc(C(CCn2cnc3ccccc32)(c2ccccc2)c2ccccc2)cc1`, the pIC50 in data set [1] and in data set [2] was less than 6.00 throughout. In addition, the “inhibition (INH)” value (in data set [3]; at Aromatase) was “Not Active” throughout.
As to `Cc1cccc(Cn2cnc3ccccc32)c1`, the pIC50 in data set [1] was 6.71; in data set [2], 6.51. Moreover, the Ratio IC50 in the data set listed under Homo sapiens is 1.6. For the same molecule, the “inhibition (INH)” value (in data set [3]; on Aromatase) was “Not Active” in each case.
For the molecule `Cc1cc(C)c(Cn2cnc3ccccc32)c(C)c1`, the pIC50 in data set [1] and in data set [2] was less than 6.00 each time. In addition, the “inhibition (INH)” value (in data set [3]; against Aromatase) was “Not Active” throughout.
On to `c1ccc(-c2cccc(Cn3cnc4ccccc43)c2)cc1`, for which the results for the pIC50 in data set [1] and in data set [2] were 6.43 and 5.65, respectively. The Ratio IC50 in the data set listed under Homo sapiens came out at 6. Moreover, the “inhibition (INH)” value (in data set [3]; against Aromatase) was “Not Active” each time.
For the molecule `Cc1c(C)c(C)c(Cn2cnc3ccccc32)c(C)c1C`, the pIC50 in data set [1] and in data set [2] was less than 6.00 in each case. Moreover, the “inhibition (INH)” value (in data set [3]; against Aromatase) was “Not Active” throughout.
Take `Cc1ccc(Cn2cnc3ccccc32)cc1`: the figures for the pIC50 in data set [1] and in data set [2] were 6.30 and 6.28, respectively. The Ratio IC50 in the data set filed under Homo sapiens amounted to 1. Besides, the “inhibition (INH)” value (in data set [3]; on Aromatase) was “Not Active” throughout.
Take `Clc1ccc(Cn2ccnc2)cc1`: the pIC50 in data set [1] is 6.85; in data set [2], 7.34. Also, in the data set filed under Homo sapiens, the Ratio IC50 came to 0.3. Further, the “inhibition (INH)” value (in data set [3]; on Aromatase) was “Not Active” in each case.
The term inhibition denotes the percentage by which the read-out fell short of the control. As for `c1ccc(C(Cn2ccnc2)(c2ccccc2)c2ccccc2)cc1`, the results for the pIC50 in data set [1] and in data set [2] were 8.40 and 8.10, respectively. The Ratio IC50 in the data set listed under Homo sapiens came out at 2. In addition, the “inhibition (INH)” value in data set [3] is reported as “Not Active”. Further, at CYP19 (aromatase), the inhibition at 0.5 µM is 38%.
For the molecule `CC(C)(C(=O)c1cccnc1)c1cccnc1` [METYRAPONE], the “inhibition (INH)” value (in data set [3]; against Aromatase) was “Not Active” throughout.
Regarding `c1ccc2c(c1)ncn2CC12CC3CC(CC(C3)C1)C2`, in data set [1], the pIC50 is 7.12. Moreover, the “inhibition (INH)” value in data set [3] is “Not Active”. On CYP19 (aromatase), this molecule came in with an inhibition at 0.5 µM of 12%.
Regarding `c1cn(CC23CC4CC(CC(C4)C2)C3)cn1`, the pIC50 in data set [1] was 8.30; in data set [2] it was 7.52. In addition, the Ratio IC50 in the data set listed under Homo sapiens was determined as 5.9. This molecule also registered an inhibition at 0.5 µM against CYP19 (aromatase) of 12%.
Regarding `Cc1ccccc1Cn1cnc2ccccc21`, the pIC50 in data set [1] was 6.11; in data set [2], 6.58. Besides, in the data set listed under Homo sapiens, the Ratio IC50 is 0.3. In addition, the “inhibition (INH)” value (in data set [3]; on Aromatase) was “Not Active” each time.
Regarding `Cc1cc(C)c(Cn2ccnc2)c(C)c1`, the pIC50 in data set [1] is 7.62; in data set [2] it was 7.52. In the data set filed under Homo sapiens, the Ratio IC50 is 1.3. For the same molecule, the “inhibition (INH)” value (in data set [3]; on Aromatase) was “Not Active” in each case.
Take `Cc1c(C)c(C)c(Cn2ccnc2)c(C)c1C`: the pIC50 is 8.30 in data set [1] and 7.64 in data set [2]. In addition, the Ratio IC50 in the data set filed under Homo sapiens is 4.6. Also, in data set [3], the “inhibition (INH)” value is reported as “Not Active”. In addition, at CYP19 (aromatase), testing at 0.5 µM gave an inhibition of 12%.
Turning to `c1ccc(C(Cn2cnc3ccccc32)(c2ccccc2)c2ccccc2)cc1`, the pIC50 in data set [1] and in data set [2] was less than 6.00 each time. Besides, the “inhibition (INH)” value (in data set [3]; against Aromatase) was “Not Active” throughout.
In the case of `c1ccc(-c2ccc(Cn3ccnc3)cn2)cc1`, in the data set listed under Homo sapiens, the Ratio IC50 was 18. The same molecule showed an inhibition at 0.5 µM against CYP19 (aromatase) of 0%.
Take `c1ccc(C(c2ccccc2)(c2ccccc2)n2ccnc2)cc1`: the pIC50 is 8.52 in data set [1] and 7.96 in data set [2]. Besides, in the data set listed under Homo sapiens, the Ratio IC50 was determined as 3.4. For the same molecule, in data set [3], the “inhibition (INH)” value is on record as “Not Active”. On CYP19 (aromatase), this molecule gave an inhibition at 0.5 µM of 38%.
As for `CCOC(=O)c1cncn1[C@H](C)c1ccccc1` [ETOMIDATE], the pIC50 in data set [2] is 10.00. For the same molecule, the Ratio IC50 in the data set listed under Homo sapiens was 0.5. The “inhibition (INH)” value (in data set [3]; at Aromatase) was “Not Active” each time.
On to `c1ccc(Cn2ccnc2)cc1`, for which the pIC50 in data set [1] was 6.87; in data set [2] it was 6.34. Moreover, the Ratio IC50 in the data set filed under Homo sapiens is 3.4. In addition, the “inhibition (INH)” value (in data set [3]; against Aromatase) was “Not Active” each time.
`Cc1cc(C)cc(Cn2cnc3ccccc32)c1`: the pIC50 is 6.73 in data set [1] and 6.20 in data set [2]. Moreover, the Ratio IC50 in the data set listed under Homo sapiens turned out to be 3.4. Moreover, the “inhibition (INH)” value (in data set [3]; against Aromatase) was “Not Active” in each case.
As to `c1ccc(C(c2ccccc2)(c2ccccc2)n2cnc3ccccc32)cc1`, the pIC50 in data set [1] and in data set [2] was less than 6.00 throughout. The “inhibition (INH)” value (in data set [3]; on Aromatase) was “Not Active” throughout.
On to `c1ccc(-c2cc(Cn3cnc4ccccc43)cc(-c3ccccc3)c2)cc1`, for which the pIC50 in data set [1] and in data set [2] was less than 6.00 each time. Also, the “inhibition (INH)” value (in data set [3]; at Aromatase) was “Not Active” each time.
With `Clc1ccc(Cn2cnc3ccccc32)cc1`, the values for the pIC50 in data set [1] and in data set [2] were 6.20 and 6.97, respectively. Moreover, in the data set filed under Homo sapiens, the Ratio IC50 worked out at 0.2. Moreover, the “inhibition (INH)” value (in data set [3]; against Aromatase) was “Not Active” each time.
Consider `Cc1ccc(Cn2ccnc2)cc1`, for which the figures for the pIC50 in data set [1] and in data set [2] were 6.59 and 6.49, respectively. Besides, the Ratio IC50 in the data set listed under Homo sapiens was 1.2. The “inhibition (INH)” value (in data set [3]; against Aromatase) was “Not Active” in each case.
For `c1ccc(-c2csc(Cn3ccnc3)c2)cc1`, the pIC50 in data set [1] is 7.72; in data set [2], 6.56. Besides, the Ratio IC50 in the data set filed under Homo sapiens was found to be 15. Besides, the inhibition at 0.5 µM against CYP19 (aromatase) stood at 72%.
As to `c1ccc(-c2ccc(Cn3cnc4ccccc43)cc2)cc1`, the pIC50 is 6.71 in data set [1] and 5.72 in data set [2]. Moreover, in the data set filed under Homo sapiens, the Ratio IC50 worked out at 10. The “inhibition (INH)” value (in data set [3]; against Aromatase) was “Not Active” in each case.
With `c1ccc(Cn2cnc3ccccc32)cc1`, the pIC50 is 6.61 in data set [1] and 6.06 in data set [2]. Besides, the Ratio IC50 in the data set filed under Homo sapiens was 3.5. Further, the “inhibition (INH)” value (in data set [3]; against Aromatase) was “Not Active” each time.
As for `c1ccc(-c2ccccc2Cn2cnc3ccccc32)cc1`, the negative-log IC50 (pIC50) in data set [1] and in data set [2] was less than 6.00 throughout. Moreover, the “inhibition (INH)” value (in data set [3]; at Aromatase) was “Not Active” in each case.

Values taken from ChEMBL document CHEMBL1649094, “First Selective CYP11B1 Inhibitors for the Treatment of Cortisol-Dependent Diseases” (ACS Med Chem Lett, 2011).
